Assay results taken from paper PMC8065212, “The active form of the influenza cap-snatching endonuclease inhibitor baloxavir marboxil is a tight binding inhibitor” (The Journal of Biological Chemistry, 2021).
“And” between values parts separate entries of the source, which are not always exact repeats. Equal entries are not always repeated. “Also recorded” adds a separate entry of the source.

What was measured:
FluB-ht PA I38T [1] = target: T1, FluB-ht PA I38T (Influenza B virus, UniProt Q5V8Z9, I38T); type: biochemical, Influenza B (B/Memphis/13/03)
FluB-ht PA I38T [2] = type: biochemical, Influenza B (B/Memphis/13/03)
FluB-ht PA I38T [3] = target: T1, FluB-ht PA I38T; type: biochemical, Influenza B (B/Memphis/13/03); remark: listed apart in the source
FluB-ht PA I38T [4] = target: T1, FluB-ht PA I38T; type: biochemical, Influenza B (B/Memphis/13/03); remark: listed apart in the source
influenza B I38 mutants = details: cited from earlier work
influenza virus = details: cited from earlier work
influenza A I38 mutants = details: cited from earlier work

| Structure (SMILES) | slope of plot of IC50 versus enzyme concentration (FluB-ht PA I38T [1]) | decrease in inhibition (difference in IC50), PA I38T versus WT (FluB-ht PA I38T [2]) | increase of Ki^app, PA I38T with respect to WT (FluB-ht PA I38T [2]) | inhibition of endonuclease activity by order of addition (FluB-ht PA I38T [3]) | BXA concentration at which an effect of preincubation is observed (FluB-ht PA I38T [4]) | effect of preincubation length on activity (FluB-ht PA I38T [4]) | increase in EC50 values with mutations at position I38 (influenza B I38 mutants) | increase in EC50 values of mutant viruses (influenza virus) | increase in EC50 values with mutations at position I38 (influenza A I38 mutants) |
| --- | --- | --- | --- | --- | --- | --- | --- | --- | --- |
| O=C1c2c(O)c(=O)ccn2N([C@@H]2c3ccccc3SCc3c2ccc(F)c3F)[C@@H]2COCCN12 [BXA, baloxavir acid] | 0.58 and ~0.5 | approximately threefold decrease | ~18 fold | no inhibition; also recorded: not observed regardless of the order of addition | 600 nM | negligible effects; also recorded: time-independent |  |  |  |
| COC(=O)OCOc1c2n(ccc1=O)N([C@@H]1c3ccccc3SCc3c1ccc(F)c3F)[C@@H]1COCCN1C2=O [BXM, Baloxavir marboxil] |  |  |  |  |  |  | up to tenfold | up to 50 fold | up to 50 fold |
